Reference: patent US7504400B2, “MTP inhibiting aryl piperydines or piperazines substituted with 5-membered heterocycles” (Janssen Pharmaceutica N.V., priority 2004, dated 2009)
Counter-ions that a name gives are not always drawn.

Legend:
Secretion of ApoB = assay: Quantification of the secretion of ApoB in HepG2 cells; assay type: cell-based; details: Homo sapiens, HepG2, 24 h, 24 hours of incubation with test compound, immunoprecipitation of apoB from medium, read-out: pIC50 value (=-log IC50 value), secretion of ApoB (converted)
Outline: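 At 70% confluency, HepG2 cells in MEM with 10% FCS received compound or DMSO carrier (0.4% final) for 24 h. Secreted apoB in cleared medium immunoprecipitated with sheep anti-apoB then rabbit anti-sheep antibody (24 h each, 8° C); pellet radioactivity counted by liquid scintillation; IC50 expressed as pIC50.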

Work on `CCCN(CCC)C(=O)C(CCN1CCN(c2ccc(-n3cnn(C(C)C)c3=O)cc2)CC1)c1ccccc1` (stereo not drawn) (as salt: salt) [Compound 2] yielded a melting point of 165 °C.

`CC(C)n1ncn(-c2ccc(N3CCN(C(C(=O)Nc4ccc5c(c4)CCC5)c4cccnc4)CC3)cc2)c1=O` (stereo not drawn) [Compound 209] showed a melting point of 198 to 200 °C and an IC50 (Secretion of ApoB) of 31.6 to 316 nM.

Molecule `CCOC(=O)C(c1cccnc1)N1CCN(c2ccc(-n3cnn(C(C)C)c3=O)cc2)CC1` (stereo not drawn) [Compound 302] has a melting point of 142 to 143 °C.

In the case of `CCOC(=O)c1cc(CNC(=O)CC2CCN(c3ccc(-n4cnn(C(C)C)c4=O)cc3)CC2)ccc1C` [Compound 382], the IC50 (Secretion of ApoB) is reported as 31.6 to 316 nM.

`CCOC(=O)c1cc(CNC(=O)C(Cc2ccccc2)C2CCN(c3ccc(-n4cnn(C(C)c5ccccc5)c4=O)cc3)CC2)ccc1C` (stereo not drawn) [Compound 383] showed an IC50 (Secretion of ApoB) of 316 to 3160 nM.

Work on `CCOC(=O)c1cc(CNC(=O)C(Cc2ccccc2)C2CCN(c3ccc(-n4cnn(C(C)C)c4=O)cc3)CC2)ccc1C` (stereo not drawn) [Compound 384] yielded an IC50 (Secretion of ApoB) of 316 to 3160 nM.

For `CCOC(=O)CC1CCN(c2ccc(-n3cnn(C(C)C)c3=O)cc2)CC1` [Compound 385], the IC50 (Secretion of ApoB) was 316 to 3160 nM.

In the case of `CCOC(=O)CC1CCN(c2ccc(-n3cnn(C(C)c4ccccc4)c3=O)cc2)CC1` (stereo not drawn) [Compound 386], the IC50 (Secretion of ApoB) is reported as 316 to 3160 nM.

For `CCOC(=O)[C@@H](C)NC(=O)CC1CCN(c2ccc(-n3cnn(C(C)c4ccccc4)c3=O)cc2)CC1` (stereo partly drawn) [Compound 391], the IC50 (Secretion of ApoB) was 316 to 3160 nM.

With `CCOC(=O)[C@@H](NC(=O)CC1CCN(c2ccc(-n3cnn(C(C)c4ccccc4)c3=O)cc2)CC1)C(C)C` (stereo partly drawn) [Compound 392] the IC50 (Secretion of ApoB) was 316 to 3160 nM.

`CCOC(=O)[C@H](NC(=O)CC1CCN(c2ccc(-n3cnn(C(C)c4ccccc4)c3=O)cc2)CC1)C(C)C` (stereo partly drawn) [Compound 393] showed an IC50 (Secretion of ApoB) of 31.6 to 316 nM.

`CCOC(=O)[C@H](NC(=O)CC1CCN(c2ccc(-n3cnn(C(C)c4ccccc4)c3=O)cc2)CC1)c1ccccc1` (stereo partly drawn) [Compound 394] showed an IC50 (Secretion of ApoB) of 31.6 to 316 nM.

Molecule `CCOC(=O)[C@@H](NC(=O)CC1CCN(c2ccc(-n3cnn(C(C)c4ccccc4)c3=O)cc2)CC1)c1ccccc1` (stereo partly drawn) [Compound 395] has an IC50 (Secretion of ApoB) of 316 to 3160 nM.

Work on `CCOC(=O)[C@@H](Cc1ccccc1)NC(=O)CC1CCN(c2ccc(-n3cnn(C(C)c4ccccc4)c3=O)cc2)CC1` (stereo partly drawn) [Compound 396] yielded an IC50 (Secretion of ApoB) of 316 to 3160 nM.

Molecule `CCOC(=O)CC[C@H](NC(=O)CC1CCN(c2ccc(-n3cnn(C(C)c4ccccc4)c3=O)cc2)CC1)C(=O)OCC` (stereo partly drawn) [Compound 397] has an IC50 (Secretion of ApoB) of 316 to 3160 nM.

For `CCOC(=O)[C@H](CC(C)C)NC(=O)CC1CCN(c2ccc(-n3cnn(C(C)c4ccccc4)c3=O)cc2)CC1` (stereo partly drawn) [Compound 398], the IC50 (Secretion of ApoB) was 316 to 3160 nM.

Work on `COC(=O)C(NC(=O)CC1CCN(c2ccc(-n3cnn(C(C)c4ccccc4)c3=O)cc2)CC1)C(C)C` (stereo not drawn) [Compound 401] yielded an IC50 (Secretion of ApoB) of 316 to 3160 nM.

`CCOC(=O)CCNC(=O)CC1CCN(c2ccc(-n3cnn(C(C)c4ccccc4)c3=O)cc2)CC1` (stereo not drawn) [Compound 402] gave an IC50 (Secretion of ApoB) of 316 to 3160 nM.

Molecule `CCOC(=O)C(C)NC(=O)CC1CCN(c2ccc(-n3cnn(C(C)c4ccccc4)c3=O)cc2)CC1` (stereo not drawn) [Compound 403] has an IC50 (Secretion of ApoB) of 316 to 3160 nM.

With `CCOC(=O)CC(NC(=O)CC1CCN(c2ccc(-n3cnn(C(C)c4ccccc4)c3=O)cc2)CC1)c1ccc2c(c1)OCO2` (stereo not drawn) [Compound 404] the IC50 (Secretion of ApoB) was 316 to 3160 nM.
